The supplement of paper PMC10307832

Legend:
Test in all cases: relative viability (nuclei count vs DMSO), 5 days (fraction); higher = more cells survive
[1] = compound: C1CSC2=C(C(=O)N1)SC3=C2C=C(C=C3)O [kb NB 142-70] + CC(=O)Nc1cccc(-n2c(=O)n(C3CC3)c(=O)c3c(Nc4ccc(I)cc4F)n(C)c(=O)c(C)c32)c1 [Trametinib] (partner 0.02 µM)
How it was run: (§1)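 Lung cancer cell lines, seeded in 1536-well plates, were treated the following day by pin tool with a single drug or with five library-drug doses (not always all listed) in √10 steps on top of a fixed anchor-drug dose. Cells were fixed and nuclei stained in one step after 5 days, and nuclei were counted. Relative viability is the nuclei count for treated wells divided by that for vehicle wells, reported as medians of duplicate plates.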

[2] = compound: C1CSC2=C(C(=O)N1)SC3=C2C=C(C=C3)O [kb NB 142-70] + CS(=O)(=O)N1CCN(Cc2cc3nc(-c4cccc5[nH]ncc45)nc(N4CCOCC4)c3s2)CC1 [Pictilisib] (partner 1 µM)
How it was run: as §1

[3] = compound: C1CSC2=C(C(=O)N1)SC3=C2C=C(C=C3)O [kb NB 142-70] + Nc1ncn([C@H]2C[C@H](O)[C@@H](CO)O2)c(=O)n1 [Decitabine] (partner 2 µM)
How it was run: as §1

[4] = compound: NCC(=O)Nc1ccc(-n2nc(C(F)(F)F)cc2-c2ccc3c(ccc4ccccc43)c2)cc1 + CC1(C)CCC(c2ccc(Cl)cc2)=C(CN2CCN(c3ccc(C(=O)NS(=O)(=O)c4ccc(N[C@H](CCN5CCOCC5)CSc5ccccc5)c(S(=O)(=O)C(F)(F)F)c4)cc3)CC2)C1 [Navitoclax] (partner 0.5 µM)
How it was run: as §1

[5] = compound: NCC(=O)Nc1ccc(-n2nc(C(F)(F)F)cc2-c2ccc3c(ccc4ccccc43)c2)cc1 + Cc1nc(Nc2ncc(C(=O)Nc3c(C)cccc3Cl)s2)cc(N2CCN(CCO)CC2)n1 [Dasatinib] (partner 0.075 µM)
How it was run: as §1

Cell Line | relative viability ([1]; first compound 0.1 µM) | relative viability ([1]; first compound 1 µM) | relative viability ([1]; first compound 3.162 µM) | relative viability ([2]; first compound 0.1 µM) | relative viability ([2]; first compound 1 µM) | relative viability ([2]; first compound 3.162 µM) | relative viability ([3]; first compound 0.1 µM) | relative viability ([3]; first compound 1 µM) | relative viability ([3]; first compound 3.162 µM) | relative viability ([4]; first compound 0.02 µM) | relative viability ([4]; first compound 0.06325 µM) | relative viability ([4]; first compound 0.2 µM) | relative viability ([4]; first compound 0.6325 µM) | relative viability ([4]; first compound 2 µM) | relative viability ([5]; first compound 0.02 µM) | relative viability ([5]; first compound 0.06325 µM) | relative viability ([5]; first compound 0.6325 µM) | relative viability ([5]; first compound 2 µM) | relative viability ([5]; first compound 0.2 µM)
NCI-H1650 | 0.557 | 0.507 | 0.761 | 0.577 | 0.539 | 0.613 | 0.492 | 0.408 | 0.442 | 1.25 | 1.5 | 1.32 | 1.1 | 1.31 | 0.349 | 0.313 | 0.364 | 0.396 | 
BEN | 1.02 | 0.99 | 0.892 | 0.561 | 0.527 | 0.405 | 0.776 | 0.741 | 0.588 | 0.0632 | 0.0631 | 0.0469 | 0.0862 | 0.0668 | 0.283 | 0.332 | 0.333 | 0.304 | 0.244
EMC-BAC-2 | 0.876 | 0.917 | 0.941 | 0.581 | 0.562 | 0.431 | 1.06 | 0.994 | 1.1 | 1.14 | 1.19 | 1.26 | 1.17 | 1.13 | 0.316 | 0.286 | 0.377 | 0.338 | 0.325
LU99A | 0.559 | 0.598 | 0.467 | 0.305 | 0.294 | 0.298 | 1.09 | 0.9 | 0.708 | 0.756 | 0.799 | 0.87 | 0.891 | 0.824 | 0.505 | 0.602 | 0.598 | 0.347 | 0.538
ABC-1 |  |  |  | 0.757 | 0.879 | 0.381 | 1.05 | 0.69 | 0.776 |  |  |  |  |  | 0.613 | 0.602 | 0.59 | 0.49 | 
NCI-H2170 | 0.878 | 0.958 | 0.888 | 0.299 | 0.275 | 0.227 | 0.501 | 0.496 | 0.369 | 0.56 | 0.598 | 0.578 | 0.561 | 0.6 | 0.522 | 0.695 | 0.581 | 0.694 | 0.494
NCI-H1299 |  |  |  | 0.802 | 0.889 | 0.32 |  |  |  | 1.02 | 1.06 | 1.09 | 1.04 | 1.07 |  |  |  |  | 
EBC-1 |  |  |  | 0.369 | 0.398 | 0.265 |  |  |  | 0.451 | 0.427 | 0.554 | 0.456 | 0.435 |  |  |  |  | 
NCI-H2347 | 0.259 | 0.267 | 0.233 | 0.874 | 0.659 | 0.324 | 0.651 | 0.613 | 0.58 | 0.771 | 0.878 | 1 | 0.906 | 0.833 | 0.36 | 0.365 | 0.326 | 0.298 | 0.301
NCI-H1993 | 0.479 | 0.741 | 0.485 | 0.917 | 0.787 | 0.649 | 0.63 | 0.589 | 0.514 | 0.945 | 1.06 | 1.02 | 1 | 0.956 | 0.569 | 0.696 | 0.688 | 0.631 | 0.526
